A short description of the data set: effective fugacity rate on heating with hot air current from ring heater and fan (FIG. 1 apparatus). It counts as physicochemical. The following applies: Table 5, Comparative Example 1: without blowing agent. The method, then:
This invention will be described below in greater detail with reference to examples, in which the effective fugacity rates of active ingredients are determined by volatilizing the ingredient within a closed container, passing the air within the container through a solvent which completely dissolves the active ingredients, such as benzene, acetone, water, chloroform or dichloromethane to cause the solvent to absorb the vaporized ingredient in the air, concentrating the solvent and subjecting the concentrate to gas chromatography. The fugacity rate is expressed in terms of the ratio in percent of the quantity of the vaporized active ingredient to the quantity of the ingredient initially admixed with a blowing agent.
Each of the specimen mixtures of insecticide and blowing agent listed in Table 2 is placed in an inner case 8 (60 cm^3 in capacity) fitted in an apparatus (15 cm in diameter and 15 cm in height) provided in its passage 2 with the same ring heater 6 as shown in FIG. 1.
The ring heater 6 (power 400 W) and a fan 4 (with 4 blades) are energized to produce a hot air current. The fan 4 is driven at 3000 r.p.m. The mixture is heated for about 5 minutes (up to a temperature of about 300° C.) with the hot air current to thermally decompose the blowing agent and diffuse the vapor of the insecticide. […]

In turn, `CC(C)=CC1C(C(=O)OCc2coc(Cc3ccccc3)c2)C1(C)C` (stereo not shown) [Specimen 27] came in with an effective fugacity rate of 0.4%.
